Measurements from patent US20210062146A1, “OPTIMIZED IN VITRO CELLULAR SYSTEM FOR BBB PERMEABILITY LINKED NEUROACTIVITY SCREENING” (priority 2019, published 2021).
Like-named read-outs stand apart in the source and are kept apart here.

What was measured:
[1] = human
in vitro [2] = details: human
[3] = tested on: direct contact triculture; experiment: Triculture cell viability assay (MTT); assay type: cell-based, human; details: following 3 hours of permeation; no significant change vs control (p>0.05)
in vitro [4] = details: human; remark: listed apart in the source
[5] = tested on: NVU model (direct contact triculture with SH-SY5Y neurons); details: for flux: human, 3 h, 50 μM
[6] = tested on: direct contact triculture (astrocytes, pericytes, HBEC-5i); details: optimized triculture; radiolabeled marker, 0.25 μCi/mL in HBSS
in vitro [7] = details: human; remark: listed apart in the source
SH-SY5Y neurons = experiment: BBB permeability linked neuroactivity (Neurite Outgrowth Staining Kit); details: 50 μM initial apical concentration, 3 hour permeation, n=4
[8] = tested on: NVU model (direct contact triculture with SH-SY5Y neurons); experiment: Permeability across optimized NVU model (triculture with SH-SY5Y neurons in basolateral chamber)

Compound: COc1cc2c(c(OC)c1OC)-c1ccc(OC)c(=O)cc1[C@@H](NC(C)=O)CC2 [colchicine]
- Papp A→B at 150 min, 25 μM [1]: 18.7 ×10⁻⁶ cm/s

Compound: COc1cc2nc(N3CCN(C(=O)c4ccco4)CC3)nc(N)c2cc1OC [prazosin]
- Papp A→B at 180 min (in vitro [2]): 3.9 ×10⁻⁶ cm/s
- viability of the triculture (MTT), percent of the control [3]: 82±6%
- Papp A→B at 150 min, 25 μM (in vitro [4]): 6.16 ×10⁻⁶ cm/s
- change in permeation rate across the NVU model in comparison to the optimized triculture alone [5]: significant decreases
- flux [5]: 166±14 pg/cm^2·sec

Compound: N[C@@H](Cc1c[nH]cn1)C(=O)O [L-histidine]
- Papp A→B at 90 min, 0.25 μCi/mL (in vitro [4]): 52.6 ×10⁻⁶ cm/s

Compound: inulin
- Papp [6]: 1.55×10^−5±0.01 cm/sec

Compound: COc1ccc2[nH]cc(CCNC(C)=O)c2c1 [melatonin]
- Papp A→B at 180 min (in vitro [2]): 18.3 ×10⁻⁶ cm/s

Compound: PEG-4000
- Papp [6]: 0.78×10^−5±0.00 cm/sec

Compound: CN1CCN(C2=Nc3cc(Cl)ccc3Nc3ccccc32)CC1 [clozapine]
- Papp A→B at 180 min (in vitro [2]): 11.4 ×10⁻⁶ cm/s
- viability of the triculture (MTT), percent of the control [3]: 99±4%
- Papp A→B at 150 min, 25 μM (in vitro [4]): 8.15 ×10⁻⁶ cm/s
- viability at 3 h, 50 μM (in vitro [7]): 143 ± 20%
- change in permeation rate across the NVU model in comparison to the optimized triculture alone [5]: significant increase
- flux [5]: 372±19 pg/cm^2·sec
- neurite outgrowth, percent of control NVU SH-SY5Y cells with vehicle (SH-SY5Y neurons): 111±12%

Compound: Cn1c(=O)c2c(ncn2C)n(C)c1=O [caffeine]
- Papp A→B at 180 min (in vitro [2]): 30.7 ×10⁻⁶ cm/s
- viability of the triculture (MTT), percent of the control [3]: 104±25%
- Papp A→B at 150 min, 25 μM (in vitro [4]): 28.9 ×10⁻⁶ cm/s
- viability at 3 h, 50 μM (in vitro [7]): 159 ± 34%
- flux [5]: 269±14 pg/cm^2·sec
- neurite outgrowth, percent of control NVU SH-SY5Y cells with vehicle (SH-SY5Y neurons): 122±26%

Compound: NC(=O)N1c2ccccc2C=Cc2ccccc21 [carbamazepine]
- viability of the triculture (MTT), percent of the control [3]: 103±5%
- Papp A→B at 150 min, 25 μM (in vitro [4]): 27.7 ×10⁻⁶ cm/s
- viability at 3 h, 50 μM (in vitro [7]): 96 ± 18%
- Papp [5]: 25.37±2.80×0^−6 cm/sec
- flux [5]: 310±9 pg/cm^2·sec

Compound: CS(=O)(=O)CCNCc1ccc(-c2ccc3ncnc(Nc4ccc(OCc5cccc(F)c5)c(Cl)c4)c3c2)o1 [Lapatinib]
- detection in the receiver chamber after 3 hours [8]: undetectable

Compound: OC[C@@H](O)[C@@H](O)[C@H](O)[C@H](O)CO [mannitol]
- Papp A→B at 90 min, 0.25 μCi/mL (in vitro [4]): 19.9 ×10⁻⁶ cm/s
